Here are results for ten compounds from patent publication US8497245B2, “Trypsin-like serine protease inhibitors, their preparation and use as selective inhibitors of the clotting factors IIa and Xa” (The Medicines Company (Leipzig) GmbH, priority 2010, dated 2013).

The target of experiment [1] is T1, Human urinary kallikrein (h uKK) (Homo sapiens, UniProt P06870).
T1 construct: purchased Lee Biosolutions
Nature of the experiment: Inhibition of human urinary kallikrein (reference enzyme). In kind it is biochemical. To be noted: S-2266 substrate. The procedure, abridged:
(§1)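 Chromogenic assay on purified enzyme: p-NA absorbance change at 405 nm gives equilibrium rates, which fitted to a competitive model provide Ki.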

The target in experiment [2] is T2, human factor IIa (human alpha-thrombin) (Homo sapiens, UniProt P00734).
T2 construct: human alpha-thrombin from Enzyme Research Laboratories; purchased Enzyme Research Laboratories
The experiment in a line: Inhibition constants for human factor IIa, chromogenic substrate assay. To be noted: 25° C., Pefachrome tPA substrate, average of at least three determinations; read-out: Ki h FIIa. In kind it is biochemical. A digest of the protocol:
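Purified enzyme, chromogenic substrate; buffer 0.05 M Tris/0.154 M NaCl/2% EtOH, pH 8.0. Read-out: p-NA release, A405. Ki from equilibrium rates, competitive-inhibition fit, mean of ≥3 determinations.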

In experiment [3] the target is T3, Subcomponent "r" of Human Complement Component 1 (h C1r) (Homo sapiens, UniProt P00736).
T3 construct: purchased Calbiochem
T3 sequence (P00736 464-705 limits assumed): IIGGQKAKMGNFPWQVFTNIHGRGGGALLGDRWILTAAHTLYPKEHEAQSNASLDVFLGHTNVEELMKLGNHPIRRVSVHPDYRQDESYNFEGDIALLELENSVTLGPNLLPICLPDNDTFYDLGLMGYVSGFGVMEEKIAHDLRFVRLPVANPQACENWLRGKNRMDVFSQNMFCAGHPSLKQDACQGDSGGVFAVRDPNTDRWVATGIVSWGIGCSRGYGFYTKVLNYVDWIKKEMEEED
T3 sequence (P00736 18-463 partner limits assumed): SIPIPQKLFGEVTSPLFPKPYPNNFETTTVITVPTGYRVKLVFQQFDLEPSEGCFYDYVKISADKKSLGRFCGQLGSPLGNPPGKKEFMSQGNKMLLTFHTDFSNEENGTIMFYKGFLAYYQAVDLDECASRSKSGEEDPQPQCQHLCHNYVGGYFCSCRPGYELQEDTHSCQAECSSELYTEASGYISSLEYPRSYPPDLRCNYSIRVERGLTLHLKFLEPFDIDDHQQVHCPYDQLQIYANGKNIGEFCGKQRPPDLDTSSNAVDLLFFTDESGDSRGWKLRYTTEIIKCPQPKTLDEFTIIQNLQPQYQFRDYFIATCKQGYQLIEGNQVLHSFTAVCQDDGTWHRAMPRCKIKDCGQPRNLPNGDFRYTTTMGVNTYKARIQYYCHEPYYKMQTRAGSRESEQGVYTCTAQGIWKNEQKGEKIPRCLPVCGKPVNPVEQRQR
Nature of the experiment: Inhibition of human C1r (reference enzyme). In kind it is biochemical. To be noted: S-2314 substrate; read-out: Ki h Clr. A digest of the protocol:
as §1

In experiment [4] the target is T4, Human urokinase type plasminogen activator (h u-PA) (Homo sapiens, UniProt P00749).
T4 construct: purchased MEDAC GmbH Urokinase HS medac
The experiment in a line: Inhibition of human urokinase type plasminogen activator (reference enzyme). In kind it is biochemical. The conditions noted are these: H-Glu-Gly-Arg-pNA substrate. A digest of the protocol: as §1

The target of experiment [5] is T5, Human plasmin (h plasmin) (Homo sapiens, UniProt P00747).
T5 construct: purchased Calbiochem
T5 sequence (P00747 581-810 limits assumed): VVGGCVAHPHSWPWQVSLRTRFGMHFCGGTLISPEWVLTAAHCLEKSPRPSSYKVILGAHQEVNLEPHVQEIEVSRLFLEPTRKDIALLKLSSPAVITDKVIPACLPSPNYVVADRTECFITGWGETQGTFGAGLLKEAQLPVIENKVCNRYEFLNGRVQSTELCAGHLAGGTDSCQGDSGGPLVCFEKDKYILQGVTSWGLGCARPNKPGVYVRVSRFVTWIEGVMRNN
T5 sequence (P00747 97-580 partner limits assumed): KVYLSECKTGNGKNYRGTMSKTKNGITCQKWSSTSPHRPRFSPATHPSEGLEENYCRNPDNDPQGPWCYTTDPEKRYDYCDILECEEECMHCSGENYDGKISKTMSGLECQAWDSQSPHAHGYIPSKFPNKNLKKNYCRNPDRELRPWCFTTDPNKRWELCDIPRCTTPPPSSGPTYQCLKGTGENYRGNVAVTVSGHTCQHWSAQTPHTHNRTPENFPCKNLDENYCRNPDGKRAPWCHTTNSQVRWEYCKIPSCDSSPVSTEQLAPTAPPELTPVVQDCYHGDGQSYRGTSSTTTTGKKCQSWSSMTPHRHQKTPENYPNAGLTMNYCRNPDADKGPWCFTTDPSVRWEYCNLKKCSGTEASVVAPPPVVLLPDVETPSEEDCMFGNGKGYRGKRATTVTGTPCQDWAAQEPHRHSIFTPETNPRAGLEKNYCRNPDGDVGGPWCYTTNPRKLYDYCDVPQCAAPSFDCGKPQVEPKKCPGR
Nature of the experiment: Inhibition of human plasmin (reference enzyme). In kind it is biochemical. To be noted: Chromozym PL substrate. The procedure, abridged: as §1

Experiment [6] addresses T6, Human tissue-type plasminogen activator (h t-PA) (Homo sapiens, UniProt P00750).
T6 construct: purchased Boehringer Ingelheim Actilyse
The experiment in a line: Inhibition of human tissue-type plasminogen activator (reference enzyme). In kind it is biochemical. The conditions noted are these: Pefachrome tPA substrate; read-out: Ki h t-PA. The method, then:
The equilibrium rates were used to calculate the inhibitor/enzyme dissociation constant (Ki values) by parameter fitting in accordance with the rate equation for competitive inhibition using GraFit (version 4 from Erithacus).
Dissociation constants were calculated as described herein.

A further experiment has as its target T7, human Factor Xa (Homo sapiens, UniProt P00742).
T7 construct: human Factor Xa from Enzyme Research Laboratories; purchased Enzyme Research Laboratories
Nature of the experiment: Inhibition constants for human factor Xa, chromogenic substrate assay. In kind it is biochemical. The conditions noted are these: 25° C., Pefachrome FXa substrate, average of at least three determinations; read-out: Ki h FXa. The procedure, abridged: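 Purified enzymes assayed in TBS (0.05 M Tris, 0.154 M NaCl, 2% ethanol, pH 8.0); p-nitroaniline release followed at 405 nm. Ki from equilibrium rates fitted to the competitive-inhibition rate equation, averaged over at least three determinations.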

Experiment [7] has as its target T8, Human Activated Protein C (h aPC) (Homo sapiens, UniProt P04070).
T8 construct: purchased Enzyme Research Laboratories
Nature of the experiment: Inhibition of human activated protein C (reference enzyme). In kind it is biochemical. The conditions noted are these: Pefachrome PCa substrate. The procedure, abridged: as §1

The target of experiment [8] is T9, Subcomponent "s" of Human Complement Component 1 (h C1s) (Homo sapiens, UniProt P09871).
T9 construct: purchased Calbiochem
T9 sequence (P09871 438-688 limits assumed): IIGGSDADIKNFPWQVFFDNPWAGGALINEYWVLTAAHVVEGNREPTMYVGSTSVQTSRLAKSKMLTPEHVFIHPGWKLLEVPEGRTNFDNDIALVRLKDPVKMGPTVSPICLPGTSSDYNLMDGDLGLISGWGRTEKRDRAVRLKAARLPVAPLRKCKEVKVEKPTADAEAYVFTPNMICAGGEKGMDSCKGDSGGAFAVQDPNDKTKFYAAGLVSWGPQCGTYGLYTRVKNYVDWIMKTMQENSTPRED
T9 sequence (P09871 16-437 partner limits assumed): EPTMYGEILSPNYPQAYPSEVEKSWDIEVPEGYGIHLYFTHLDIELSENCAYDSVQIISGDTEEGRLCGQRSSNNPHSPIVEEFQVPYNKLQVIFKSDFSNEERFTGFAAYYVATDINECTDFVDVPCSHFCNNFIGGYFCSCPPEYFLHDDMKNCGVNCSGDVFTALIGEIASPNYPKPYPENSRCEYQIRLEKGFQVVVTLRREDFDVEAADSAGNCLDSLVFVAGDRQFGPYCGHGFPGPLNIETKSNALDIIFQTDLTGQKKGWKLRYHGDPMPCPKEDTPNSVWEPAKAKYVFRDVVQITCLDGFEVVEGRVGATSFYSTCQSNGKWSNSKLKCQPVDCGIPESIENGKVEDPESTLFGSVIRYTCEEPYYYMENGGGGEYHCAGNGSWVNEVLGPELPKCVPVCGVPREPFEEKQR
Nature of the experiment: Inhibition of human C1s (reference enzyme). In kind it is biochemical. To be noted: S-2314 substrate; read-out: Ki h Cls. The procedure, abridged:
as §1

The target of experiment [9] is T10, Human plasma kallikrein (h PK) (Homo sapiens, UniProt P03952).
T10 construct: purchased Enzyme Research Laboratories
T10 sequence (P03952 391-638 limits assumed): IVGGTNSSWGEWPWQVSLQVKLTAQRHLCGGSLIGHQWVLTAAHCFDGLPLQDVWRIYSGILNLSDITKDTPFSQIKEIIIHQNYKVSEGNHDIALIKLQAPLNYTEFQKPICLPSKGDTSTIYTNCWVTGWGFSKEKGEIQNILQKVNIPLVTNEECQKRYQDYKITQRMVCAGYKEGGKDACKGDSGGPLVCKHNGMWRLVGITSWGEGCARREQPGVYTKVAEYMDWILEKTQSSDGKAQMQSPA
T10 sequence (P03952 20-390 partner limits assumed): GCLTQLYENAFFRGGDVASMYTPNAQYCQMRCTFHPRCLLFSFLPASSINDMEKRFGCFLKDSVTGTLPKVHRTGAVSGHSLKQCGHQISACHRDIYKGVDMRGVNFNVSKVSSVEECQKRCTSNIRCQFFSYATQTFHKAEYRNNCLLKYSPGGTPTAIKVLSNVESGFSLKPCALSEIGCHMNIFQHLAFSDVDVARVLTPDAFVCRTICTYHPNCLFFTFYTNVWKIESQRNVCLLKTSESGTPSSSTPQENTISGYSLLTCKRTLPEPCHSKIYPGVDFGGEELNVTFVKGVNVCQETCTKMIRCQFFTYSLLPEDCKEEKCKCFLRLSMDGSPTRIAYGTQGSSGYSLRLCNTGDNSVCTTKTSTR
The experiment in a line: Inhibition of human plasma kallikrein (reference enzyme). In kind it is biochemical. The conditions noted are these: S2302 substrate. A digest of the protocol: as §1

The next experiment has as its system thrombin and FXa. The conditions noted are these: literature value; cited from earlier work.

Molecules are shown by their SMILES. Where a name gives a salt, the structure may show the parent alone. Where only a bound is given, the exact number is not on record here.

T1 sequence (P06870 25-262): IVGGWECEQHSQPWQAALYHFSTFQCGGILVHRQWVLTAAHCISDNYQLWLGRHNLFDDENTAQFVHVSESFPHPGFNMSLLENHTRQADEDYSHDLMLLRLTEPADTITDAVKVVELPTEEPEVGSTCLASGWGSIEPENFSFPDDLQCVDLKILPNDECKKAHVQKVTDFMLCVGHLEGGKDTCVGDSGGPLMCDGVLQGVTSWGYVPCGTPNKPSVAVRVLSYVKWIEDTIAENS
T6 sequence (P00750 36-562): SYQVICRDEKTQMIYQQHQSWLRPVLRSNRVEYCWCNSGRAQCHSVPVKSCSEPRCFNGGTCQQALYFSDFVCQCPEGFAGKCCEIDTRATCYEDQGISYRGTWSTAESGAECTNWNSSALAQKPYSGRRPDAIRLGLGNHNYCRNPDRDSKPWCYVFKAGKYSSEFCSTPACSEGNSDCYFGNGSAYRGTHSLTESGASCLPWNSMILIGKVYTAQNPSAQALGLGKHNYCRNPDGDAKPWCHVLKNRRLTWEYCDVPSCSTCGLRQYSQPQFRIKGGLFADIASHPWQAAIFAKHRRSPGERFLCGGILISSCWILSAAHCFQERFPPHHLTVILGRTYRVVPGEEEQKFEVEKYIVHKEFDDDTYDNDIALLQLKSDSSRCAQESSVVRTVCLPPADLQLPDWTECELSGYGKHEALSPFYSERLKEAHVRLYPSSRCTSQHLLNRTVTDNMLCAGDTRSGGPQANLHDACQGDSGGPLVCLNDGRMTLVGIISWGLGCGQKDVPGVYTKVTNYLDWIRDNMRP
T7 sequence (P00742 235-488 limits assumed): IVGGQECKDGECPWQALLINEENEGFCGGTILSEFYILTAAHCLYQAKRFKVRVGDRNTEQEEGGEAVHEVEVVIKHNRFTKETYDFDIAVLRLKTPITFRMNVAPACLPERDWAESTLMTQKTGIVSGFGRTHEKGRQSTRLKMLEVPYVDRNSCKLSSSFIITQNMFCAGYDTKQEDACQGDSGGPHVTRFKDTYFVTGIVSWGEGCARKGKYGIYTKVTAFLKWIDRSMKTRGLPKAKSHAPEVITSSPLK
T7 sequence (P00742 41-179 partner limits assumed): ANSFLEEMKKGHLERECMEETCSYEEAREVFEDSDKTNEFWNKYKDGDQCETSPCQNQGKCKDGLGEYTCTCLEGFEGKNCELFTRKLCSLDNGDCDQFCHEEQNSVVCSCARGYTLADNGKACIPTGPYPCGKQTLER
T8 sequence (P04070 212-450 limits assumed): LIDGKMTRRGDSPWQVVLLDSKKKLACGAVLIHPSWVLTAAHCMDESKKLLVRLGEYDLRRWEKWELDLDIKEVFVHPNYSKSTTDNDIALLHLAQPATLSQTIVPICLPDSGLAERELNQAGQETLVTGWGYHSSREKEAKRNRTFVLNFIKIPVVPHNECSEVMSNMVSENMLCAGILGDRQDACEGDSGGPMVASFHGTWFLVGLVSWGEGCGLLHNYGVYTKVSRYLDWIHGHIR
T8 sequence (P04070 43-197 partner limits assumed): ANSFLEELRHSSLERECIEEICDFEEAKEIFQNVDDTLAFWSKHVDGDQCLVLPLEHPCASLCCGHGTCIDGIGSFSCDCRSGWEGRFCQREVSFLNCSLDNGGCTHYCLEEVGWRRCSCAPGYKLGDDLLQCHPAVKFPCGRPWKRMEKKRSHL

One may read the Ki as the equilibrium dissociation constant of an inhibitor or competing ligand from its target. Take `NCc1ccc(Cl)cc1CNC(=O)[C@@H]1CCCN1C(=O)[C@@H](CCC(=O)N1CCOCC1)NC(=O)Cc1ccccc1` [Compound 2.42]: the Ki in [1] is above 20 µM; in [2], 0.088 µM; in experiment [3] it was above 20 µM; in [4], above 100 µM; in experiment [5], above 50 µM; in experiment [6] it was above 50 µM. The inhibition constant Ki was 0.965 µM on human Factor Xa, above 10 µM in experiment [7], above 100 µM in experiment [8] and above 50 µM in experiment [9].
`NCc1ccc(Cl)cc1CNC(=O)[C@@H]1CCN1C(=O)[C@@H](CCC(=O)N1CCOCC1)NS(=O)(=O)Cc1ccccc1` [Compound 2.43]: the Ki in experiment [1] was above 10 µM; in experiment [2], 0.0097 µM; in experiment [3], above 30 µM; in [4], above 20 µM; in experiment [5] it was above 40 µM; in experiment [6] it was above 80 µM. Moreover, the Ki at human Factor Xa is 0.0017 µM; in experiment [7], above 100 µM; in experiment [8], above 80 µM; in experiment [9], 5.81 µM.
With `NCc1ccc(Cl)cc1CNC(=O)[C@@H]1CCN1C(=O)[C@@H](CC(=O)N1CCOCC1)NS(=O)(=O)Cc1ccccc1` [Compound 2.44], the Ki in experiment [1] is above 20 µM; in [2] it was 0.004 µM; in experiment [3], above 100 µM; in experiment [4] it was above 50 µM; in experiment [5], above 10 µM; in experiment [6], above 35 µM. Further, the Ki at human Factor Xa is 0.00087 µM; in experiment [7], above 100 µM; in experiment [8], above 100 µM; in experiment [9], 1.83 µM.
For `NCc1ccc(Cl)cc1CNC(=O)[C@@H]1CCN1C(=O)[C@@H](CC(=O)N1CCCCC1)NS(=O)(=O)Cc1ccccc1` [Compound 2.45], the inhibition constant (Ki) was above 10 µM in experiment [1]; 0.00072 µM in experiment [2]; above 30 µM in experiment [3]; above 20 µM in [4]; above 20 µM in [5]; above 20 µM in experiment [6]. The Ki was 0.00022 µM on human Factor Xa, above 100 µM in [7], above 100 µM in [8] and 1.86 µM in experiment [9].
Turning to `NCc1ccc(Cl)cc1CNC(=O)[C@@H]1CCCN1C(=O)[C@@H](CC(=O)O)NS(=O)(=O)Cc1ccccc1` [Compound 2.46], the Ki in experiment [1] was above 20 µM; in [2], 0.0122 µM; in [3], above 100 µM; in [4] it was above 50 µM; in experiment [5], above 10 µM; in [6], above 50 µM. Besides, the Ki is 1.32 µM on human Factor Xa, above 40 µM in experiment [7], above 50 µM in [8] and above 50 µM in [9].
As for `CN(CC1CCOCC1)C(=O)C[C@@H](NS(=O)(=O)Cc1ccccc1)C(=O)N1CCC[C@H]1C(=O)NCc1cc(Cl)ccc1CN` [Compound 2.47, Bzls-D-Asp((tetrahydro-2H-pyran-4-yl)-N-methylmethanamine)-L-Pro-Amb(2-AMe-5-Cl)×2 TFA], the Ki in [1] was above 20 µM; in experiment [2] it was 0.00032 µM; in [3] it was above 10 µM; in experiment [4] it was above 100 µM; in [5] it was above 15 µM; in [6], above 50 µM. Moreover, the Ki is 0.002 µM at human Factor Xa, above 100 µM in [7], above 100 µM in experiment [8] and 0.304 µM in [9].
On to `NCc1ccc(Cl)cc1CNC(=O)[C@@H]1CCCN1C(=O)[C@H](N)CCC(=O)N1CCOCC1` [Compound 2.49, H-D-Glu(morpholino)-L-Pro-Amb(2-AMe-5-Cl)×2 TFA], for which the Ki in experiment [1] was above 100 µM; in [2], 0.008 µM; in experiment [3] it was above 10 µM; in experiment [4], above 100 µM; in experiment [5] it was above 100 µM; in experiment [6], above 100 µM. Besides, the Ki on human Factor Xa is 0.134 µM; in experiment [7], above 10 µM; in [8] it was above 100 µM; in experiment [9], above 10 µM.
As for `NCc1ccc(Cl)cc1CNC(=O)[C@@H]1CCN1C(=O)[C@@H](CC(=O)N1CCNCC1)NS(=O)(=O)Cc1ccccc1` [Compound 2.50, Bzls-D-Asp(piperazinyl)-L-Aze-Amb(2-AMe-5-Cl)×2 TFA], the Ki in experiment [1] was above 100 µM; in experiment [2] it was 0.014 µM; in [3], above 100 µM; in [4], above 25 µM; in experiment [5] it was above 15 µM; in experiment [6] it was above 20 µM. For the same compound, the Ki on human Factor Xa was 0.0052 µM; in experiment [7], above 100 µM; in experiment [8] it was above 100 µM; in experiment [9], 3.34 µM.
Consider `Cc1cccc(S(=O)(=O)Nc2ccc(C)n(CC(=O)NCCON=C(N)N)c2=O)c1` [RWJ445167], for which, in the experiment with thrombin and FXa, the FXa/thrombin ratio is below 0.02.
On to `Cn1c(CNc2ccc(C(=N)N)cc2)nc2cc([C@@](C)(NCC(=O)O)C(=O)N3CCCC3)ccc21` [Tanogitran], for which, in the experiment with thrombin and FXa, the FXa/thrombin ratio is given as 0.1.
